Series [1] deals with RAW264.7. Nature of the series: Antiinflammatory activity in LPS/IFNgamma-stimulated mouse RAW264.7 cells assessed as decrease in IL-6 mRNA level incubated for 20 hrs followed by LPS/IFNgamma stimulation for last 4 hrs by qRT-PCR analysis. Format: functional, cell-based.
The target of series [2] is T1, Histone deacetylase 3/Nuclear receptor corepressor 2 (HDAC3/NCoR2) (Homo sapiens) (UniProt O15379+Q9Y618). Nature of the series: Inhibition of recombinant human C-terminal His-tagged HDAC3/NcoR2 using Boc-Lys-(Ac)-AMC as substrate after 1 hr by fluorescence assay. It is filed as protein-complex assay.
Series [3] has as its target Histone deacetylase 2 (Homo sapiens) (UniProt Q92769). Nature of the series: Inhibition of recombinant human C-terminal flag-tagged HDAC2 using Boc-Lys-(Ac)-AMC as substrate after 1 hr by fluorescence assay.
For series [4], the system named is RAW264.7. Nature of the series: Antiinflammatory activity in LPS/IFNgamma-stimulated mouse RAW264.7 cells assessed as decrease in IL-1beta mRNA level at 1 to 10 uM incubated for 20 hrs followed by LPS/IFNgamma stimulation for last 4 hrs by qRT-PCR analysis. Format: functional, cell-based.
Series [5] has as its target T1, Histone deacetylase 3/Nuclear receptor corepressor 2 (HDAC3/NCoR2) (Homo sapiens). Nature of the series: Inhibition of recombinant human C-terminal His/flag-tagged HDAC3/NcoR2 at 2 to 16 uM using Boc-Lys-(Ac)-AMC as substrate in presence of Lys-C by fluorescence assay. It is filed as protein-complex assay. The settings on record: TDE = time-dependent effect.
For series [6], the system named is RAW264.7. Kind of series: Antiinflammatory activity in LPS/IFNgamma-stimulated mouse RAW264.7 cells assessed as decrease in IL-6 mRNA level at 10 uM incubated for 20 hrs followed by LPS/IFNgamma stimulation for last 4 hrs by qRT-PCR analysis. Format: functional. More on the design: scale not given: the % may be the effect or the level left.
In series [7] the test system is RAW264.7. Kind of series: Cytotoxicity against LPS/IFNgamma-stimulated mouse RAW264.7 cells assessed as decrease in cell viability incubated for 16 hrs followed by LPS/IFNgamma stimulation for last 4 hrs by MTS assay. The settings on record: raw264.7, 16 h. It is filed as cell-based.
The target in series [8] is Histone deacetylase 1 (Homo sapiens) (UniProt Q13547). Nature of the series: Inhibition of recombinant human C-terminal His/flag-tagged HDAC1 using Boc-Lys-(Ac)-AMC as substrate after 1 hr by fluorescence assay.
Sequence of Histone deacetylase 1 (Homo sapiens) (Q13547 whole entry): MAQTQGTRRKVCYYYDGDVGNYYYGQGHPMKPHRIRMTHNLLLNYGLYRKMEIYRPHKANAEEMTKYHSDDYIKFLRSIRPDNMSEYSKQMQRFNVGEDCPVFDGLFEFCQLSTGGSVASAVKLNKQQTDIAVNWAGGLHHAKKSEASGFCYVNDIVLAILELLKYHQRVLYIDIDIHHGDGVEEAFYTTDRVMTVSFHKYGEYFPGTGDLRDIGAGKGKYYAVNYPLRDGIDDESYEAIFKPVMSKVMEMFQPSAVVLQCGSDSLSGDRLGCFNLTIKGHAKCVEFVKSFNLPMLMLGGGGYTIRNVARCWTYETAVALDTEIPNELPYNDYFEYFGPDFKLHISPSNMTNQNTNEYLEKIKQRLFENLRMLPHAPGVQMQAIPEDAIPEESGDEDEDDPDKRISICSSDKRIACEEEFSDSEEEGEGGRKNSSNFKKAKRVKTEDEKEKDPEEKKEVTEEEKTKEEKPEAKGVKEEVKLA
In series [9] the target is Transcription factor p65 (Mus musculus) (UniProt Q04207). Nature of the series: Inhibition of NF-kappaB p65 transcriptional activity in LPS/IFNgamma-stimulated mouse RAW264.7 cells at 10 uM incubated for 20 hrs followed by LPS/IFNgamma stimulation for last 4 hrs by SEAP reporter gene assay. It is filed as cell-based.
Sequence of Transcription factor p65 (Mus musculus) (Q04207 whole entry): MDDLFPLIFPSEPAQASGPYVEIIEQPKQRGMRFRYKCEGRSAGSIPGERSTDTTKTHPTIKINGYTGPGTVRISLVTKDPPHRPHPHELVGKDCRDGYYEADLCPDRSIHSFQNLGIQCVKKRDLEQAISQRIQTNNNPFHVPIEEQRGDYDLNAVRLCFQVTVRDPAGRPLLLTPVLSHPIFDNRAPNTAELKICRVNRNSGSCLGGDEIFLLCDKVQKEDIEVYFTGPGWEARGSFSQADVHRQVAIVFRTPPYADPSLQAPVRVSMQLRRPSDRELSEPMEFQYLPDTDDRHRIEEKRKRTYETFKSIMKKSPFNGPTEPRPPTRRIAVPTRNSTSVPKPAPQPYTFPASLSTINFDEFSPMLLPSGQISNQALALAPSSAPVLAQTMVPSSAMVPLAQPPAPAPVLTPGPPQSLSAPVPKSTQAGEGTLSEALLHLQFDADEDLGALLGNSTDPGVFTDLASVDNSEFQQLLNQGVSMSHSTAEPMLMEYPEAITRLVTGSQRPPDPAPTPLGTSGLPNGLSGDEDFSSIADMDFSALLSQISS
Series [10] relates to RAW264.7. Nature of the series: Antiinflammatory activity in LPS/IFNgamma-stimulated mouse RAW264.7 cells assessed as decrease in IL-12b mRNA level at 1 to 10 uM incubated for 20 hrs followed by LPS/IFNgamma stimulation for last 4 hrs by qRT-PCR analysis. It is filed as functional, cell-based.
Series [11] has as its target Histone deacetylase 1 (Homo sapiens) (UniProt Q13547). Kind of series: Inhibition of recombinant human C-terminal His/flag-tagged HDAC1 at 2 to 16 uM using Boc-Lys-(Ac)-AMC as substrate preincubated for 1 hr followed by substrate addition in presence of Lys-C by fluorescence assay.
Series [12] has as its target Histone deacetylase 2 (Homo sapiens) (UniProt Q92769). Nature of the series: Inhibition of recombinant human C-terminal His/flag-tagged HDAC2 at 2 to 16 uM using Boc-Lys-(Ac)-AMC as substrate in presence of Lys-C by fluorescence assay. The settings on record: TDE = time-dependent effect.
Series [13] shares this target. Nature of the series: Inhibition of recombinant human C-terminal His/flag-tagged HDAC2 at 2 to 16 uM using Boc-Lys-(Ac)-AMC as substrate preincubated for 1 hr followed by substrate addition in presence of Lys-C by fluorescence assay.
In series [14] the test system is RAW264.7. Nature of the series: Antiinflammatory activity in LPS/IFNgamma-stimulated mouse RAW264.7 cells assessed as decrease in iNOS mRNA level at 10 uM incubated for 20 hrs followed by LPS/IFNgamma stimulation for last 4 hrs by qRT-PCR analysis. It is filed as functional, cell-based.
Series [15] has as its system RAW264.7. Nature of the series: Antiinflammatory activity in LPS/IFNgamma-stimulated mouse RAW264.7 cells assessed as decrease in TNFalpha mRNA level incubated for 20 hrs followed by LPS/IFNgamma stimulation for last 4 hrs by qRT-PCR analysis. Format: functional, cell-based.
Series [16] deals with T1, Histone deacetylase 3/Nuclear receptor corepressor 2 (HDAC3/NCoR2) (Homo sapiens). Kind of series: Inhibition of recombinant human C-terminal His/flag-tagged HDAC3/NcoR2 at 2 to 16 uM using Boc-Lys-(Ac)-AMC as substrate preincubated for 1 hr followed by substrate addition in presence of Lys-C by fluorescence assay. Format: protein-complex assay.
The target of series [17] is Histone deacetylase 1 (Homo sapiens) (UniProt Q13547). Kind of series: Inhibition of recombinant human C-terminal His/flag-tagged HDAC1 at 2 to 16 uM using Boc-Lys-(Ac)-AMC as substrate in presence of Lys-C by fluorescence assay. The note with it: TDE = time-dependent effect.
The target of series [18] is Transcription factor p65 (Mus musculus) (UniProt Q04207). Kind of series: Inhibition of NF-kappaB p65 nuclear translocation in LPS/IFNgamma-stimulated mouse RAW264.7 cells at 1 uM incubated for 20 hrs followed by LPS/IFNgamma addition measured after 1 hr by Hoechst 33342 staining based immunofluorescence microscopy. It is filed as cell-based.
Series [19] deals with T2, Histone deacetylase 8 (Homo sapiens) (UniProt Q9BY41).
T2 sequence (whole entry): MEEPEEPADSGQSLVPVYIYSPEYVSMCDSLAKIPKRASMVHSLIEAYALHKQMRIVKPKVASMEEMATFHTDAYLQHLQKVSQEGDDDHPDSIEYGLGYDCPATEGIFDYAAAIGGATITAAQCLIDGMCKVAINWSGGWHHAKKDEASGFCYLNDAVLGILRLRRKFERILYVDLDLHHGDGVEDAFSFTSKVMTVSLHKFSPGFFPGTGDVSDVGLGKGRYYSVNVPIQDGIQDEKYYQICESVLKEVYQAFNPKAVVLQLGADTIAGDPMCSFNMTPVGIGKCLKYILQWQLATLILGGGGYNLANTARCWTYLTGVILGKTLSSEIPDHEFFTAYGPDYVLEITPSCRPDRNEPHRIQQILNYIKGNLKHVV
Kind of series: Inhibition of recombinant human C-terminal His-tagged HDAC8 up to 50 uM using Boc-Lys-(Ac)-AMC as substrate after 1 hr by fluorescence assay.

Series [20] concerns the target Transcription factor p65 (Mus musculus) (UniProt Q04207). Nature of the series: Inhibition of NF-kappaB p65 transcriptional activity in LPS/IFNgamma-stimulated mouse RAW264.7 cells at 1 to 5 uM incubated for 20 hrs followed by LPS/IFNgamma stimulation for last 4 hrs by SEAP reporter gene assay. Format: cell-based.

For four compounds, Activity and inhibition results are on record in ChEMBL document CHEMBL4190172 (Medchemcomm, 2016).

Calls of active or inactive are those of the source. No cut-off for these calls is given here.

Sequence of Histone deacetylase 2 (Homo sapiens) (Q92769 whole entry): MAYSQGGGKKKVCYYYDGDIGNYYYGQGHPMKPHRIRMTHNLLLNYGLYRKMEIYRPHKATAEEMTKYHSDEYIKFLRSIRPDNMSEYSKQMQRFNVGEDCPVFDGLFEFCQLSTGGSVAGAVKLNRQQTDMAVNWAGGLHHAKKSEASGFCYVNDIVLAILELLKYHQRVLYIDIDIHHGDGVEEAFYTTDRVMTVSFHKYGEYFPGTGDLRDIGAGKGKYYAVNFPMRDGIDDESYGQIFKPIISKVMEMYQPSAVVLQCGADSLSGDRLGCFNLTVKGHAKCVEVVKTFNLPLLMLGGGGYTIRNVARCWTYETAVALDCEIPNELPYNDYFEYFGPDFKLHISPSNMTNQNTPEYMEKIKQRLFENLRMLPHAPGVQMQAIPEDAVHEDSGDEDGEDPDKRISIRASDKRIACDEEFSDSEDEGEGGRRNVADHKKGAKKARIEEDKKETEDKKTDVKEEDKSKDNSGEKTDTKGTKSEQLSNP

Consider `Nc1ccccc1NC(=O)c1ccc(CNc2ccc(/N=N/c3ccccc3)cc2)cc1`, for which the Activity entry in series [1] is “Dose-dependent effect”; in series [6], 90%; in [7] it was “Non-Toxic”; in series [15], “Dose-dependent effect”. The inhibition result in series [2], in series [3], in series [8], in series [11], in series [13] and in series [16] was “Active” throughout. The inhibition entry in [18] was “Active”. Besides, the result in series [4], in series [10] and in series [14] was Active. The inhibition entry was “Tde” in series [5], below 50% in series [9], “Tde” in [12] and “Tde” in series [17].
Regarding `Nc1ccccc1NC(=O)c1ccc(CNc2ccccc2/N=N/c2ccccc2)cc1`, the inhibition entry in series [19] is “inactive”.
Take `Nc1ccccc1NC(=O)c1ccc(CNc2cccc(/N=N/c3ccccc3)c2)cc1`: the inhibition entry in series [2], in series [3], in [8], in [11], in [13] and in [16] was “Active” each time. In addition, the inhibition entry in [5], in series [12] and in series [17] was “Tde” in each case. Moreover, the Activity entry in series [7] is given as “Non-Toxic”. Further, the inhibition result in series [9], in series [20] and in series [18] was “inactive” in each case. For the same compound, in series [14], the outcome was inactive.
On to `CC(C)(C)OC(=O)Nc1ccccc1NC(=O)c1ccc(CNc2ccccc2/N=N/c2ccccc2)cc1`, for which the inhibition result in [2], in [3], in series [8], in series [11], in series [13] and in series [16] was “Active” throughout. Further, the inhibition result in [18] was “Active”. Also, the inhibition result in [5] is “Tde”; in series [9] it was below 50%; in [12], “Tde”; in series [17], “Tde”. Further, in [7], the Activity result is on record as “Non-Toxic”. The result in [14] was inactive. In addition, in series [19], the inhibition result is “inactive”.
